Tests used:
ROCK1 kinase = target: T1, ROCK1 kinase (Homo sapiens, UniProt Q13464); experiment: In vitro evaluation of ROCK1 kinase selectivity (HTRF KinEASE-STK time-resolved fluorometric assay); assay type: biochemical
T1 construct: purchased Invitrogen
Description: ROCK1 activity was detected using a 96-well (Cisbio) time-resolved fluorometric assay. The assay for ROCK1 was performed in the following assay buffer: 5 mM MgCl2 (Sigma), 1 mM DTT (Sigma) and 1× kinase buffer. The kinase buffer was used for dilution. 7.5 μL of ROCK1 kinase (Invitrogen) was added to a 96-well microplate to reach a final concentration of 0.4 ng/μL, and then 0.25 μL of test compound (DMSO content: 1%) was added. The mixture was incubated at room temperature for 0.5 h. To start the reaction, the kinase buffer was also used to mix ATP (Aladdin) and the substrate STK-substrate 2-biotin. 7.5 μL of the mixed solution was added to the microplate to reach final concentrations of 3.53 μM and 1 μM. The resulting mixture was incubated for 2 h at room temperature. […] was mixed with STK antibody-Cryptate, and then an appropriate volume of the mixture was mixed with an equal volume of streptavidin-XL665. 10 μL of the resulting mixture was added to stop the reaction. After further incubation for about 1 h, the microplate was read on a Molecular Devices SpectraMax i3x multifunctional microplate reader. The kinase buffer, the STK-substrate 2-biotin, the detection buffer, the STK antibody-Cryptate, and the streptavidin-XL665 were all from HTRF KinEASE-STK kit (Cisbio, 1000 tests, 61[…]).

ROCK2 kinase = target: T2, ROCK2 kinase (Homo sapiens, UniProt O75116); experiment: In vitro evaluation of ROCK2 kinase activity (HTRF KinEASE-STK time-resolved fluorometric assay); assay type: biochemical
T2 construct: purchased Invitrogen PV3759
T2 sequence (O75116 whole entry): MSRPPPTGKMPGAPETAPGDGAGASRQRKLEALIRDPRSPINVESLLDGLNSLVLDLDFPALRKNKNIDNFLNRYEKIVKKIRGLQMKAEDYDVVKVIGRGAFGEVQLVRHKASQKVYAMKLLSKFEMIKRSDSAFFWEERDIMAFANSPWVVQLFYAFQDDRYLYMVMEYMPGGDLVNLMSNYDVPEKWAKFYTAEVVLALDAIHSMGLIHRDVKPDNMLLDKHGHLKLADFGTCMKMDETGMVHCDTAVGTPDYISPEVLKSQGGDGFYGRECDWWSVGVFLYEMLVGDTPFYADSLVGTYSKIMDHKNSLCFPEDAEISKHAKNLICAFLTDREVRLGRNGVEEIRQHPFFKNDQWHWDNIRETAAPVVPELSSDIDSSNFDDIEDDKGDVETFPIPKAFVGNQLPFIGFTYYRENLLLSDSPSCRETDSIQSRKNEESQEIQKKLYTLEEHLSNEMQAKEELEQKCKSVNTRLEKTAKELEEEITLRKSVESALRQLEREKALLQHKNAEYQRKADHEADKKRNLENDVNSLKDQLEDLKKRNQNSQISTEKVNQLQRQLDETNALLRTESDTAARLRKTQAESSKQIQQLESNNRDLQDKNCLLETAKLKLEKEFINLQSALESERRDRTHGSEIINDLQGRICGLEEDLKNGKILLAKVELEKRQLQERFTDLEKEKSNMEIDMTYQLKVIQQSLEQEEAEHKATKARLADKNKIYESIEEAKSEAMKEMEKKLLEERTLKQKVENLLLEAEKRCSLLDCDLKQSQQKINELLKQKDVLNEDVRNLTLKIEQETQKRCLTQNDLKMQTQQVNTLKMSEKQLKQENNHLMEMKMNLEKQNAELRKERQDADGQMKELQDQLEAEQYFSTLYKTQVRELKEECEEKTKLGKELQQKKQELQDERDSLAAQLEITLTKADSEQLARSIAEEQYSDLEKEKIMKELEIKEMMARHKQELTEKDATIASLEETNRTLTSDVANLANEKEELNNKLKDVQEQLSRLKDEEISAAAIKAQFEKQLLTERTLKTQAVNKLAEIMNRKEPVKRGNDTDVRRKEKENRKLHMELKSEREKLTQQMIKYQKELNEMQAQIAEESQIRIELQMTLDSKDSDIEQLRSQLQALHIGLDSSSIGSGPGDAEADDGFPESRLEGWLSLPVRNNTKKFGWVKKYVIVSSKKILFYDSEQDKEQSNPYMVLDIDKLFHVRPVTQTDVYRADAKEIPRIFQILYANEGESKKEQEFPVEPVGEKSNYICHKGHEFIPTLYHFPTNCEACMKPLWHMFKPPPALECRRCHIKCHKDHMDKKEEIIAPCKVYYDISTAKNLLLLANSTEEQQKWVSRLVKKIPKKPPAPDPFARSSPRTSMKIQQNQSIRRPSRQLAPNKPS
Description: ROCK2 activity screening. ROCK2 activity was detected using a 96-well (Cisbio) time-resolved fluorometric assay. The assay for ROCK2 was performed in the following assay buffer: 5 mM MgCl2 (Sigma), 1 mM DTT (Sigma) and 1× kinase buffer. The kinase buffer was used for dilution. 7.5 μL of ROCK2 kinase (Invitrogen, PV3759) was added to a 96-well microplate to reach a final concentration of 0.4 ng/μL, and then 0.25 μL of test compound (DMSO content: 1% (volume fraction)) was added. The mixture was incubated at room temperature for 0.5 h. To start the reaction, the kinase buffer was used to mix ATP (Aladdin) and the substrate STK-substrate 2-biotin. 7.5 μL of the mixed solution was added to the microplate to reach final concentrations of 6.739 μM and 1 μM. The resulting mixture was incubated for 2 h at room temperature. 5 mL of detection buffer was mixed with STK antibody-Cryptate, and then an appropriate volume of the mixture was mixed with an equal volume of streptavidin-XL665. 10 μL of the resulting mixture was added to the microplate to stop the reaction. After further incubation for about 1 h, the microplate was read on a Molecular Devices SpectraMax i3x multifunctional microplate reader. The kinase buffer, the STK-substrate 2-biotin, the detection buffer, the STK antibody-Cryptate, and the streptavidin-XL665 were all from HTRF KinEASE-STK kit (Cisbio, 1000 tests, 61[…]).

T1 sequence (Q13464 whole entry): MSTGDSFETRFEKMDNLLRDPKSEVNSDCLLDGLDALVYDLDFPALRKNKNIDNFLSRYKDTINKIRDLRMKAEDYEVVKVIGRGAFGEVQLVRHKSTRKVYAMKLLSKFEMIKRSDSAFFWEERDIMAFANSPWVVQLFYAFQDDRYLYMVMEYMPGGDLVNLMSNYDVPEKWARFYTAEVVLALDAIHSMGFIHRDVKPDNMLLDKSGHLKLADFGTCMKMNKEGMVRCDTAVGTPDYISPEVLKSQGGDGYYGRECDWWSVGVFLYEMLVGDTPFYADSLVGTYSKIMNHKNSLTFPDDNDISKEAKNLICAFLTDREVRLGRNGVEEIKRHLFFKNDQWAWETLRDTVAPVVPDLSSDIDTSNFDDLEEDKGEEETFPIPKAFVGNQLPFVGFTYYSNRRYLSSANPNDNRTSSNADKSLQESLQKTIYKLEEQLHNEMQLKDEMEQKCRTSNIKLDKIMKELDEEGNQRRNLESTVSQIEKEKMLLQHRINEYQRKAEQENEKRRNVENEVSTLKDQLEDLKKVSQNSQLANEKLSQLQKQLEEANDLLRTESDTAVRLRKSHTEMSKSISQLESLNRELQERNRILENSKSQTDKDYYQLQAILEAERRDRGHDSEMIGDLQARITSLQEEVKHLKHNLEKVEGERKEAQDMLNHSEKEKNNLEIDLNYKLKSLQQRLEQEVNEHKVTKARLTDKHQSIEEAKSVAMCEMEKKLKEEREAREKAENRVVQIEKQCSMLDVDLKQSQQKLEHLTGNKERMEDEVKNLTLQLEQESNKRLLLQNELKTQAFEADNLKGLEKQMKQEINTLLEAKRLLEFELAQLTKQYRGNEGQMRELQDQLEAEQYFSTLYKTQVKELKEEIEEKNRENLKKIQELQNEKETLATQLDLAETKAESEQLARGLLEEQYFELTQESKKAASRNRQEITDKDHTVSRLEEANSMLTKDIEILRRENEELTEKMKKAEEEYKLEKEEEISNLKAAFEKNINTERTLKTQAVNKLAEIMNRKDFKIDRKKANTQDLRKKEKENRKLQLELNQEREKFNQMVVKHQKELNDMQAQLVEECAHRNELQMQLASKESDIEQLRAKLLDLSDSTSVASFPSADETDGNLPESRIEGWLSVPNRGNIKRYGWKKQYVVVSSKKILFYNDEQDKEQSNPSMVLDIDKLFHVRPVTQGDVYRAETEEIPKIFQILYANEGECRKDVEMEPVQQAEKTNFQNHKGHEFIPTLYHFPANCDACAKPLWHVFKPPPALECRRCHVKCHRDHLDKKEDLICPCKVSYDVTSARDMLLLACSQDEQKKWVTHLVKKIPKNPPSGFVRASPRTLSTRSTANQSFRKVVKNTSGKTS

Compound | IC50 (ROCK1 kinase) [nM] | IC50 (ROCK2 kinase) [nM]
O=C(N[C@H](CN1CC(F)(F)C1)c1cc(F)cc(F)c1)N1CCc2cc(-c3c[nH]nc3F)c(F)cc21 [Compound T340] | 50 to 500 | ≤ 50
COc1cc(F)cc(CNC(=O)N2CCc3cc(-c4cn[nH]c4F)ccc32)c1 [Compound T342, 5-(5-fluoro-1H-pyrazol-4-yl)-N-(3-fluoro-5-methoxybenzyl)indoline-1-carboxamide] | ≤ 50 | ≤ 50
O=C(NCc1cc(F)cc(OCC2CC2)c1)N1CCc2cc(-c3c[nH]nc3F)c(F)cc21 [Compound T347, N-(3-(cyclopropylmethoxy)5-fluorobenzyl)-6-fluoro-5-(3-fluoro-1H-pyrazol-4-yl)indoline-1-carboxamide] | ≤ 50 | ≤ 50
N#Cc1cc(F)cc(CNC(=O)N2CCc3cc(-c4c[nH]nc4N)c(F)cc32)c1 [Compound T348, 5-(3-amino-1H-pyrazol-4-yl)-N-(3-cyano-5-fluorobenzyl)-6-fluoroindoline-1-carboxamide] | 500 to 5000 | 500 to 5000
O=C(NCc1cc(F)cc(OC(F)(F)F)c1)N1CCc2cc(-c3cn[nH]c3)c(F)cc21 [Compound T349, 6-fluoro-N-(3-fluoro-5-(trifluoromethoxy)benzyl)-5-(1H-pyrazol-4-yl)indoline-1-carboxamide] | 500 to 5000 | 500 to 5000
COc1cc(F)cc(CNC(=O)N2CCc3cc(-c4c[nH]nc4F)c(F)cc32)c1 [Compound T351, 6-fluoro-5-(3-fluoro-1H-pyrazol-4-yl)-N-(3-fluoro-5-methoxybenzyl)indoline-1-carboxamide] | ≤ 50 | ≤ 50
COc1cc(F)cc(CNC(=O)N2CCc3cc(-c4cn[nH]c4)c(C#N)cc32)c1 [Compound T353, 6-cyano-N-(3-fluoro-5-methoxybenzyl)-5-(1H-pyrazol-4-yl)indoline-1-carboxamide] | 500 to 5000 | 50 to 500
CC(C)COc1cc(F)cc([C@@H](CO)NC(=O)N2CCc3cc(-c4cn[nH]c4)c(F)cc32)c1 [Compound T354, (S)-6-fluoro-N-(1-(3-fluoro-3-isobutoxyphenyl)-2-hydroxyethyl)-5-(1H-pyrazol-4-yl)indoline-1-carboxamide] | 50 to 500 | 50 to 500

Now from value to molecule:

IC50 (ROCK1 kinase) [nM] | IC50 (ROCK2 kinase) [nM] | Compound
≤ 50 | ≤ 50 | COc1cc(F)cc(C(C)NC(=O)N2CCc3cc(-c4cn[nH]c4)c(F)cc32)c1 (centres unmarked) [Compound T341, 6-fluoro-N-(1-(3-fluoro-5-methoxyphenyl)ethyl)-5-(1H-pyrazol-4-yl)indoline-1-carboxamide]
500 to 5000 | 50 to 500 | CN1CC(COc2cc(F)cc(C(CO)NC(=O)N3CCc4cc(-c5cn[nH]c5)c(F)cc43)c2)C1 (centres unmarked) [Compound T343, 6-fluoro-N-(1-(3-fluoro-5-((1-methylazetidin-3-yl)methoxy)phenyl)-2-hydroxyethyl)-5-(1H-pyrazol-4-yl)indoline-1-carboxamide]
≤ 50 | ≤ 50 | COc1cc(F)cc([C@@H](CO)NC(=O)c2ncn3cc(-c4cn[nH]c4)ccc23)c1 [Compound T344, (S)-N-(1-(3-fluoro-5-methoxyphenyl)-2-hydroxyethyl)-6-(1H-pyrazol-4-yl)imidazo[1,5-a]pyridine-1-carboxamide]
≤ 50 | ≤ 50 | O=C(COc1cc(F)cc([C@@H](CO)NC(=O)N2CCc3cc(-c4cn[nH]c4)c(F)cc32)c1)N1CC(F)(F)C1 [Compound T350, (S′)-N-(1-(3-(2-(3,3-difluoroazetidin-1-yl)-2-oxoethoxy)-5-fluorophenyl)-2-hydroxyethyl)-6-fluoro-5-(1H-pyrazol-4-yl)indoline-1-carboxamide]
≤ 50 | ≤ 50 | COc1cc(F)cc([C@@H](CO)NC(=O)c2cnc3cc(-c4cn[nH]c4)ccn23)c1 [Compound T352, (S)-N-(1-(3-fluoro-5-methoxyphenyl)-2-hydroxyethyl)-7-(1H-pyrazol-4-yl)imidazo(1,2-a)pyridine-3-carboxamide]
